Data reported in patent US20240301319A1, “PERFUMING COMPOSITIONS” (FIRMNICH SA, priority 2017, published 2024).

Assays:
[1] = Odor threshold and odor value of perfuming compounds (Tables 4 to 10)
[2] = Volatility of perfuming compounds (Tables 4 to 10), with top/middle/bottom note type; type: physicochemical
Summary of the method: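 Volatility is expressed in μg/l in air. Top notes are 70,000 to 100 μg/l, middle notes 99 to 50 μg/l, and bottom notes 49 to 0.1 μg/l. Compounds are grouped by olfactive family: watery, green, fruity, citrus, sweet, gourmand and woody.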

[3] = Log P (n-octanol/water) of perfuming compounds (Tables 4 to 10)
[4] = Table 6, perfuming compounds having a fruity note
[5] = Table 8, perfuming compounds having a sweet note
[6] = Table 6, perfuming compounds having a fruity note, note type by volatility
[7] = perfuming compounds having a green note

In the case of CC(C)CC(=O)OCc1ccccc1 [BENZYL 3-METHYLBUTANOATE], the “Odor Threshold” value [1, 4] is reported as 7.31E−03 μg/l air, the “Odor Value” [1, 4] is reported as 8.70E+03 and the “Odor Threshold” value [1, 5] is reported as 7.31E−03 μg/l air. For the same compound, the “Odor Value” [1, 5] was 8.70E+03, the Volatility [2, 4] was 63.56 μg/l air and the Type [2, 6] was “Middle”. For the same compound, the Volatility [2, 5] was 63.56 μg/l air, the Type ([2]; Table 8, perfuming compounds having a sweet note, note type by volatility) was “Middle” and the “Log P (n-octanol/water)” value [3, 4] was 3.45. The “Log P (n-octanol/water)” value [3, 5] was 3.45.
With CC(=O)CCC=C(C)C [6-METHYL-5-HEPTEN-2-ONE] the “Odor Threshold (μg/l air)” value [1, 7] was 1.06E−01 μg/l air, the Volatility [2, 4] was 5775.94 μg/l air and the Type [2, 6] was “TOP (perfuming compounds having a volatility ranging from 70,000 to 100 μg/l in air are referred to as “top notes”)”. For the same compound, the Type ([2]; note type (Top/Middle/Bottom) by volatility, perfuming compounds having a green note) was “Top”, the “Volatility (μg/l air)” value [2, 7] was 5775.94 μg/l air and the “Log P (n-octanol/water)” value [3, 4] was 2.05. The “Log P (n-octanol/water)” value ([3]; n-octanol/water, perfuming compounds having a green note) was 2.05.
